Source: ChEMBL document CHEMBL1201862, “PubChem BioAssay data set” (2004)
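Tested at 5 concentrations; 48 h exposure; 96-well plates; endpoints linearly interpolated, else capped at highest concentration. Here, GI50 denotes the concentration required for 50% inhibition of growth.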 Activity calls are given as the source filed them. Rule as the data show it: active = GI50 up to about 1.1 µM and inactive = higher. Where a SMILES comes first, the peptide text is derived from it. The star is where a group is joined. Boc = CC(C)(C)OC(=O)*

Legend:
Assay in all cases: NCI anticancer screen, dose series, 48 h
OVCAR-8 = tested on: OVCAR-8
PC-3 = tested on: PC-3
UACC-257 = tested on: UACC-257
NCI-H460 = tested on: NCI-H460
TK-10 = tested on: TK-10
K562 = tested on: K562
SF-268 = tested on: SF-268
786-0 = tested on: 786-0
NCI/ADR-RES = tested on: NCI/ADR-RES
ACHN = tested on: ACHN
U-251 = tested on: U-251
RXF 393 = tested on: RXF 393
EKVX = tested on: EKVX
BT-549 = tested on: BT-549
NCI-H522 = tested on: NCI-H522
SK-MEL-2 = tested on: SK-MEL-2
CCRF-CEM = tested on: CCRF-CEM
M14 = tested on: M14
SNB-19 = tested on: SNB-19
NCI-H226 = tested on: NCI-H226
A498 = tested on: A498
LOX IMVI = tested on: LOX IMVI
COLO 205 = tested on: COLO 205
UO-31 = tested on: UO-31
DU-145 = tested on: DU-145
SK-OV-3 = tested on: SK-OV-3
MOLT-4 = tested on: MOLT-4
SN12C = tested on: SN12C
HOP-92 = tested on: HOP-92
SK-MEL-28 = tested on: SK-MEL-28
OVCAR-3 = tested on: OVCAR-3
UACC-62 = tested on: UACC-62
HCT-116 = tested on: HCT-116
HT-29 = tested on: HT-29
NCI-H23 = tested on: NCI-H23
OVCAR-4 = tested on: OVCAR-4
SR = tested on: SR
SF-295 = tested on: SF-295
HOP-62 = tested on: HOP-62
IGROV-1 = tested on: IGROV-1
MDA-MB-435 = tested on: MDA-MB-435
CAKI-1 = tested on: CAKI-1
RPMI-8226 = tested on: RPMI-8226
Hs-578T = tested on: Hs-578T
Malme-3M = tested on: Malme-3M
A549 = tested on: A549
HCT-15 = tested on: HCT-15
SW-620 = tested on: SW-620
T47D = tested on: T47D
SK-MEL-5 = tested on: SK-MEL-5
HL-60 = tested on: HL-60
OVCAR-5 = tested on: OVCAR-5
KM12 = tested on: KM12
MDA-MB-231 = tested on: MDA-MB-231
SF-539 = tested on: SF-539
MDA-N = tested on: MDA-N
MCF7 = tested on: MCF7
HCC 2998 = tested on: HCC 2998
SNB-75 = tested on: SNB-75

In the case of `O=C(NC1CCN(Cc2ccccc2)CC1)c1ccccc1I`, the GI50 (OVCAR-8) is reported as 39.8 µM (inactive), the GI50 (PC-3) is reported as 23.6 µM (inactive) and the GI50 (UACC-257) is reported as 18.1 µM (inactive). The GI50 (NCI-H460) was 24.7 µM (inactive), the GI50 (TK-10) was 21.6 µM (inactive) and the GI50 (K562) was 23.3 µM (inactive). For the same compound, the GI50 (SF-268) was 39.3 µM (inactive), the GI50 (786-0) was 26.1 µM (inactive) and the GI50 (NCI/ADR-RES) was 25.7 µM (inactive). The GI50 (ACHN) was 49.3 µM (inactive), the GI50 (U-251) was 23.2 µM (inactive) and the GI50 (RXF 393) was 43.9 µM (inactive). For the same compound, the GI50 (EKVX) was 43.3 µM (inactive), the GI50 (BT-549) was 51.1 µM (inactive) and the GI50 (NCI-H522) was 14.4 µM (inactive). The GI50 (SK-MEL-2) was 23.4 µM (inactive), the GI50 (CCRF-CEM) was 24.3 µM (inactive) and the GI50 (M14) was 18.7 µM (inactive). For the same compound, the GI50 (SNB-19) was 51.4 µM (inactive), the GI50 (NCI-H226) was 25.8 µM (inactive) and the GI50 (A498) was 57 µM (inactive). For the same compound, the GI50 (LOX IMVI) was 17.5 µM (inactive), the GI50 (COLO 205) was 18.9 µM (inactive) and the GI50 (UO-31) was 15.8 µM (inactive). For the same compound, the GI50 (DU-145) was 61.9 µM (inactive), the GI50 (SK-OV-3) was 22.4 µM (inactive) and the GI50 (MOLT-4) was 17 µM (inactive). For the same compound, the GI50 (SN12C) was 62.7 µM (inactive), the GI50 (HOP-92) was 28.7 µM (inactive) and the GI50 (SK-MEL-28) was 17.8 µM (inactive). For the same compound, the GI50 (OVCAR-3) was 43.9 µM (inactive), the GI50 (UACC-62) was 18.5 µM (inactive) and the GI50 (HCT-116) was 16.7 µM (inactive). For the same compound, the GI50 (HT-29) was 16.6 µM (inactive), the GI50 (NCI-H23) was 26.2 µM (inactive) and the GI50 (OVCAR-4) was 86.3 µM (inactive). For the same compound, the GI50 (SR) was 25.6 µM (inactive), the GI50 (SF-295) was 20.2 µM (inactive) and the GI50 (HOP-62) was 19.8 µM (inactive). For the same compound, the GI50 (IGROV-1) was 42.6 µM (inactive), the GI50 (MDA-MB-435) was 17.4 µM (inactive) and the GI50 (CAKI-1) was 53.5 µM (inactive). The GI50 (RPMI-8226) was 36.3 µM (inactive), the GI50 (Hs-578T) was 17.9 µM (inactive) and the GI50 (Malme-3M) was 17.5 µM (inactive). The GI50 (A549) was 31.6 µM (inactive), the GI50 (HCT-15) was 17.7 µM and the GI50 (SW-620) was 19.7 µM (inactive). For the same compound, the GI50 (T47D) was 22.2 µM (inactive), the GI50 (SK-MEL-5) was 16.9 µM (inactive) and the GI50 (HL-60) was 38.9 µM (inactive). The GI50 (OVCAR-5) was 22.5 µM (inactive), the GI50 (KM12) was 17.3 µM (inactive) and the GI50 (MDA-MB-231) was 24.2 µM (inactive). The GI50 (SF-539) was 23.2 µM (inactive).

In the case of `CCOC(=O)C(CC(C)C)NC(=O)C(Cc1ccccc1)NC(=O)CNC(=O)OC(C)(C)C` (stereo not drawn) (Boc-Gly-Phe-Leu-OEt; configuration not given here), the GI50 (OVCAR-8) is reported as 21.7 µM (inactive), the GI50 (PC-3) is reported as 20 µM (inactive) and the GI50 (UACC-257) is reported as 19.7 µM (inactive). For the same compound, the GI50 (MDA-N) was 14.7 µM (inactive), the GI50 (NCI-H460) was 12.1 µM (inactive) and the GI50 (TK-10) was 31 µM (inactive). The GI50 (K562) was 19 µM (inactive), the GI50 (SF-268) was 21 µM (inactive) and the GI50 (786-0) was 20.9 µM (inactive). For the same compound, the GI50 (MCF7) was 2.44 µM (inactive), the GI50 (NCI/ADR-RES) was 80.2 µM (inactive) and the GI50 (ACHN) was 17.1 µM (inactive). The GI50 (U-251) was 17.7 µM (inactive), the GI50 (HCC 2998) was 19.7 µM (inactive) and the GI50 (RXF 393) was 25.8 µM (inactive). The GI50 (EKVX) was 22.3 µM (inactive), the GI50 (BT-549) was 27.7 µM (inactive) and the GI50 (NCI-H522) was 19.1 µM (inactive). For the same compound, the GI50 (SK-MEL-2) was 28.9 µM (inactive), the GI50 (CCRF-CEM) was 16.6 µM (inactive) and the GI50 (M14) was 20 µM (inactive). For the same compound, the GI50 (SNB-19) was 31.6 µM (inactive), the GI50 (NCI-H226) was 17.3 µM (inactive) and the GI50 (A498) was 22.1 µM (inactive). For the same compound, the GI50 (LOX IMVI) was 18.2 µM (inactive), the GI50 (UO-31) was 45.8 µM (inactive) and the GI50 (DU-145) was 21.3 µM (inactive). For the same compound, the GI50 (SK-OV-3) was 20.8 µM (inactive), the GI50 (MOLT-4) was 11.1 µM (inactive) and the GI50 (SN12C) was 19.2 µM (inactive). The GI50 (HOP-92) was 25.2 µM (inactive), the GI50 (SK-MEL-28) was 16.6 µM (inactive) and the GI50 (OVCAR-3) was 17.2 µM (inactive). For the same compound, the GI50 (SNB-75) was 16.3 µM (inactive), the GI50 (UACC-62) was 18.4 µM (inactive) and the GI50 (HCT-116) was 17.9 µM (inactive). The GI50 (HT-29) was 18.1 µM (inactive), the GI50 (OVCAR-4) was 36.9 µM (inactive) and the GI50 (SR) was 15.8 µM (inactive). For the same compound, the GI50 (SF-295) was 34.8 µM (inactive), the GI50 (HOP-62) was 28.2 µM (inactive) and the GI50 (IGROV-1) was 21.6 µM (inactive). The GI50 (MDA-MB-435) was 18.2 µM (inactive), the GI50 (CAKI-1) was 0.145 µM (active) and the GI50 (RPMI-8226) was 20.9 µM (inactive). The GI50 (Hs-578T) was 31.8 µM (inactive), the GI50 (Malme-3M) was 19.9 µM (inactive) and the GI50 (A549) was 18.7 µM (inactive). For the same compound, the GI50 (HCT-15) was 18.4 µM, the GI50 (SW-620) was 20.6 µM (inactive) and the GI50 (T47D) was 26.5 µM (inactive). The GI50 (SK-MEL-5) was 20.8 µM (inactive), the GI50 (HL-60) was 2.42 µM (inactive) and the GI50 (KM12) was 18.5 µM (inactive). The GI50 (SF-539) was 13.5 µM (inactive).
